# Data from US20120184562A1, “1,6- AND 1,8-NAPHTHYRIDINES” (priority 2011, published 2012).
# Structures can show the parent of a compound that is named as a salt.
# Experiments:
# Human DYRK1B = target: T1, Human DYRK1B (Homo sapiens, UniProt Q9Y463); experiment: DYRK1B Kinase TR-FRET (IMAP-Tb) Assay; assay type: biochemical; conditions: TR-FRET (IMAP-Tb); ATP 70 μM; 37° C., 60 minutes; average of multiple runs; read-out: Enzyme IC50 (μM) DYRK1B
# T1 construct: purchased Invitrogen PR8350B (former PV4649)
# Text: DYRK1B Kinase TR-FRET (IMAP-Tb) Assay The kinase TR-FRET (IMAP-Tb) assay uses a fluorescence labeled substrate peptide in the kinase reaction. Upon phosphorylation by the kinase, phosphopeptide is produced, which will be detected by the binding solution provided in IMAP TR-FRET binding kit. After the completion of the kinase reaction, the reaction will be stopped by adding the binding solution containing terbium tracer. This tracer is immobilized on the surface of the IMAP beads, which also contain metal ions on the beads that bind to the phospho-groups of the products. Thus the phosphorylated product of the reaction can enter into close proximity to the tracer, producing resonance energy transfer. Due to the long lifetime of terbium (Tb) fluorescence the detection can be run in time resolved mode, which virtually eliminates fluorescence interference from assay components or compounds. The TR-FRET signal measurement from this assay, given as an IC50 measurement, is a measure of a test compound's ability to interfere with the phosphorylation of the peptide substrate, that is it inhibits the phosphorylation of the substrate peptide by DYRK1B, and is thus a measure of the test compound's ability to inhibit the activity of DYRK1B. […] Human DYRK1B: from Invitrogen. Part #PR8350B (former PV4649) • 2. Substrate Peptide: in-house synthesized: RRRFRPASPLRGPPK • 3. IMAP TR-FRET IPP Explorer Kit: from Molecular Devices. Part #R8157 • 4. Kinase Assay Buffer (KAB): 10 mM HEPES pH 7.0, 50 mM NaCl, 5 mM MgCl2, 1 mM DTT, 1 mM NaVO4, 200 μg/mL BSA (0.02%) • 5. Assay Plate: Remp polypropylene clear 384-well microplate. Cat#23490-102 • 6. Detection Plate: Costa black 384-well microplate. Cat #3710 Assay Procedure: This assay was performed as follows: • 1. Transfer 1.5 μL of 20× compound solution to each well of an assay plate. • 2. Add to each well 22.5 μL of KAB Buffer. • 3. Add to each well 3 μL of the solution of DYRK1B and ATP. […] Add to each well 3 μL of the substrate peptide. The assay concentration is 1.0 μM • 5. Incubate the assay plates at 37° C. for 60 minutes. • 6. Add 18 μL of Detection Solution (1:800 diluted Progress bead stock, 1:400 diluted Tb stock, 80% Buffer A, and 20% Buffer B) into each well of detection plates. • 7. Transfer 6 μL of assay solution from the assay plate to the detection plate. • 8. Shake detection plates for 30 minutes. • 9. Read plates in Envision with wavelength set at excitation 340 nm for Tb, emission 490 nm, and […] 520 nm. • 10. Calculation: TR-FRET Signal=(Reading at […]/Reading at 490 nM)×2000000
# Human DYRK1A = target: T2, Human DYRK1A (Homo sapiens, UniProt Q13627); experiment: DYRK1A Kinase TR-FRET (IMAP-Tb) Assay; assay type: biochemical; conditions: TR-FRET (IMAP-Tb); ATP 70 μM; 37° C., 60 minutes; average of multiple runs; read-out: Enzyme IC50 (μM) DYRK1A
# T2 construct: purchased Invitrogen PV3997
# Text: DYRK1A Kinase TR-FRET (IMAP-Tb) Assay
# The kinase TR-FRET (IMAP-Tb) assay uses a fluorescence labeled substrate peptide in the kinase reaction. Upon phosphorylation by the kinase, phosphopeptide is produced, which will be detected by the binding solution provided in IMAP TR-FRET binding kit. After the completion of the kinase reaction, the reaction will be stopped by adding the binding solution containing terbium tracer. This tracer is immobilized on the surface of the IMAP beads, which also contain metal ions on the beads that bind to the phospho-groups of the products. Thus the phosphorylated product of the reaction can enter into close proximity to the tracer, producing resonance energy transfer. Due to the long lifetime of terbium (Tb) fluorescence the detection can be run in time resolved mode, which virtually eliminates fluorescence interference from assay components or compounds.
# The TR-FRET signal measurement from this assay, given as an IC50 measurement, is a measure of a test compound's ability to interfere with the phosphorylation of the peptide substrate, that is it inhibits the phosphorylation of the substrate peptide by DYRK1A, and is thus a measure of the test compound's ability to inhibit the activity of DYRK1A.
# • 1. Human DYRK1A: from Invitrogen. Part #PV3997 • 2. Substrate Peptide: […] • 3. IMAP TR-FRET IPP Explorer Kit: from Molecular Devices. Part #R8157 • 4. Kinase Assay Buffer (KAB): 10 mM HEPES pH 7.0, 50 mM NaCl, 5 mM MgCl2, 1 mM DTT, 1 mM NaVO4, 200 μg/mL BSA (0.02%) • 5. Assay Plate: Remp polypropylene clear 384-well microplate. […] Detection Plate: Costa black 384-well microplate. […] Transfer 1.5 μL of 20× compound solution to each well of an assay plate. • 2. Add to each well 22.5 μL of KAB Buffer. • 3. Add to each well 3 μL of the solution of DYRK1A and ATP. […] Add to each well 3 μL of the substrate peptide. The assay concentration is 1.0 μM • 5. Incubate the assay plates at 37° C. for 60 minutes. • 6. Add 18 μL of Detection Solution (1:800 diluted Progress bead stock, 1:400 diluted Tb stock, 80% Buffer A, and 20% Buffer B) into each well of detection plates. • 7. Transfer 6 μL of assay solution from the assay plate to the detection plate. • 8. Shake detection plates for 30 minutes. • 9. Read plates in Envision with wavelength set at excitation 340 nm for Tb, emission 490 nm, and […].
# [1] = system: SW620 human colon cancer cells; experiment: SW620 Cell Viability Assay; assay type: cell-based; conditions: SW-620, 96 h, 4 days incubation, CellTiter-Glo Luminescent Cell Viability Assay, read-out: Cellular EC50 (μM) SW620
# Method: SW620 Cell Viability Assay
# 1. Cell Plate Preparation: SW620 human colon cancer cells (known to express DYRK1B), obtained from ATCC, were seeded into 96-well plates at 3×10^3 cells/well in 50 μL of media. • Harvested the required number of cells (counts & viability determined by Guava Viacount). • Centrifuge cells to pellet and removed supernant. • Resuspended in growth media (50 μL/well) & pipetted thoroughly to break up clumps. • Setup for ˜100 wells/plate, therefore, VT=5 mL/plate @ […]. 1A. Some cells (S—) were allowed to attach for 24 hrs, serum starved for 48 hrs, and then followed with drug treatments. Test compound solution were prepared in regular corresponding media supplemented with serum. 2. Test Compound Preparation: Test compounds were solubilized in either DMSO or media and prepared at various stock concentrations. • All compounds were incubated at 37° C. for 30 minutes and vortexed. • (5 mM stocks of test compound were prepared for non-soluble compounds)
# • The 10 mM test compound stock was diluted to a concentration of 100× the final Cmax concentration. • Then the test compound stock is diluted 50-fold in media and/or second compound for a final Cmax concentration in the test compound plate. • The Cmax in the test compound plate (2% DMSO) is 2-fold higher than the final Cmax in the cell plate (60 uL titrations were 1:3). 4. Viability Assay: This assay was performed as follows: • Transfer 50 μL of test compound solution per well from the test compound plate onto the cell plate prepared in Step #1. • Mix the plate with treated cells by pipetting up and down three times with 200 μL multi-channel pipette. • Incubate the cells in 5% CO2 incubator @ 37° C. for 4 days. • Run the CellTiter-Glo™ Luminescent Cell Viability Assay.
# The results of this assay, given as EC50 values, indicate the concentration of test compound that inhibits tumor cell proliferation by 50%.
# T1 sequence (Q9Y463 whole entry): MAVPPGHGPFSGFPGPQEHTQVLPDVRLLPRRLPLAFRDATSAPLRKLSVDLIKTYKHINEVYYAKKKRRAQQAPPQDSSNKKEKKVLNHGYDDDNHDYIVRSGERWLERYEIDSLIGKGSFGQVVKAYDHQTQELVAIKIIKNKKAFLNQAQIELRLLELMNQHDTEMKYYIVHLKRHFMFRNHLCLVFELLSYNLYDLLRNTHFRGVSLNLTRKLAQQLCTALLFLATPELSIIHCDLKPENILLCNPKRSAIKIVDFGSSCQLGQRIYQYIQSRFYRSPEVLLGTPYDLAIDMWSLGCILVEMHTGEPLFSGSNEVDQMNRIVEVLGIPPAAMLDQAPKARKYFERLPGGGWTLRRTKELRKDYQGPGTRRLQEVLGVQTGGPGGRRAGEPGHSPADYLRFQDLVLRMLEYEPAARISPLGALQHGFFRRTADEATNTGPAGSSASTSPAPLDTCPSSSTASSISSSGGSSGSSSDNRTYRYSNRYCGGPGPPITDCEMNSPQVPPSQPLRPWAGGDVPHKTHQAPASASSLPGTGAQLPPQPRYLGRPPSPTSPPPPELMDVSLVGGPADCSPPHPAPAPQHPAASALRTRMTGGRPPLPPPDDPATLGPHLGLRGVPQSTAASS
SMILES,IC50 (Human DYRK1B) [µM],IC50 (Human DYRK1A) [µM],EC50 [1] [µM]
"COC(=O)c1ccc(C)c(NC(=O)c2cc3cnc(NCC(O)CO)cc3[nH]c2=O)c1 (stereo not drawn) [Example 49, 3-{[7-(2,3-Dihydroxy-propylamino)-2-oxo-1,2-dihydro-[1,6]naphthyridine-3-carbonyl]-amino}-4-methyl-benzoic acid methyl ester; hydrochloride]",0.537,0.3,> 10
"COc1cc2[nH]c(=O)c(C(=O)Nc3cc(C(=O)NC(CN)c4ccccc4)ccc3Cl)cc2cn1 (stereo not drawn) [Example 45, 7-Methoxy-2-oxo-1,2-dihydro-[1,6]naphthyridine-3-carboxylic acid [5-(2-amino-1-phenyl-ethylcarbamoyl)-2-chloro-phenyl]-amide; hydrochloride]",0.014,0.0115,0.177
"COc1cc2[nH]c(=O)c(C(=O)Nc3cc(C(=O)NC(CCN)c4cccc(Cl)c4)ccc3Cl)cc2cn1 (stereo not drawn) [Example 67, 7-Methoxy-2-oxo-1,2-dihydro-[1,6]naphthyridine-3-carboxylic acid {5-[3-amino-1-(3-chloro-phenyl)-propylcarbamoyl]-2-chloro-phenyl}-amide; hydrochloride]",0.0854,0.00952,0.103
"COc1cc2[nH]c(=O)c(C(=O)Nc3cc(C(=O)NCc4ccsc4)ccc3Cl)cc2cn1 [Example 43, 7-Methoxy-2-oxo-1,2-dihydro-[1,6]naphthyridine-3-carboxylic acid {2-chloro-5-[(thiophen-3-ylmethyl)-carbamoyl]-phenyl}-amide]",0.041,0.028,> 10
"COc1cc2[nH]c(=O)c(C(=O)Nc3cc(C(=O)NC(CCN)c4ccccc4)ccc3C)cc2cn1 (stereo not drawn) [Example 61, 7-Methoxy-2-oxo-1,2-dihydro-[1,6]naphthyridine-3-carboxylic acid [5-(3-amino-1-phenyl-propylcarbamoyl)-2-methyl-phenyl]-amide; hydrochloride]",0.155,0.034,2.27
"COc1cc2[nH]c(=O)c(C(=O)Nc3cc(C(=O)NC(CN)c4cccc(Cl)c4)ccc3Cl)cc2cn1 (stereo not drawn) [Example 51, 7-Methoxy-2-oxo-1,2-dihydro-[1,6]naphthyridine-3-carboxylic acid {5-[2-amino-1-(3-chloro-phenyl)-ethylcarbamoyl]-2-chloro-phenyl}-amide; hydrochloride]",0.119,0.0198,0.373
"COc1cc2[nH]c(=O)c(C(=O)Nc3cc(C(=O)NCc4ccsc4)ccc3C)cc2cn1 [Example 38, 7-Methoxy-2-oxo-1,2-dihydro-[1,6]naphthyridine-3-carboxylic acid {2-methyl-5-[(thiophen-3-ylmethyl)-carbamoyl]-phenyl}-amide]",0.424,0.266,> 10
"COc1ccc2cc(C(=O)Nc3cc(C(=O)NCc4cccc(Cl)c4)ccc3C)c(=O)[nH]c2n1 [Example 99, N-(5-(3-Chlorobenzylcarbamoyl)-2-methylphenyl)-7-methoxy-2-oxo-1,2-dihydro-1,8-naphthyridine-3-carboxamide]",0.235,0.123,> 10
"COc1cc2[nH]c(=O)c(C(=O)Nc3cc(C(=O)NC(CN)c4ccsc4)ccc3C)cc2cn1 (stereo not drawn) [Example 59, 7-Methoxy-2-oxo-1,2-dihydro-[1,6]naphthyridine-3-carboxylic acid [5-(2-amino-1-thiophen-3-yl-ethylcarbamoyl)-2-methyl-phenyl]-amide; hydrochloride]",0.0308,0.0113,0.299
"COc1cc2[nH]c(=O)c(C(=O)Nc3cc(C(=O)NCc4ccccc4)ccc3C)cc2cn1 [Example 33, 7-Methoxy-2-oxo-1,2-dihydro-[1,6]naphthyridine-3-carboxylic acid (5-benzylcarbamoyl-2-methyl-phenyl)-amide]",0.484,2.15,1.47
"COC(=O)c1ccc(Cl)c(NC(=O)c2cc3cnc(OC)cc3[nH]c2=O)c1 [Example 30, 4-Chloro-3-[(7-methoxy-2-oxo-1,2-dihydro-[1,6]naphthyridine-3-carbonyl)-amino]-benzoic acid methyl ester]",0.119,0.135,> 10
"COc1cc2[nH]c(=O)c(C(=O)Nc3cc(C(=O)NC(CCN)c4ccccc4)ccc3Cl)cc2cn1 (stereo not drawn) [Example 69, 7-Methoxy-2-oxo-1,2-dihydro-[1,6]naphthyridine-3-carboxylic acid [5-(3-amino-1-phenyl-propylcarbamoyl)-2-chloro-phenyl]-amide; hydrochloride]",0.0137,0.0124,0.256
